In PubChem BioAssay AID1817 (Sanford-Burnham Center for Chemical Genomics, 2009):
Active and inactive are the calls of the source.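 How the source made its calls: active means displacement of at least 50% at 20 µM, with a fluorescence ratio check between 0.3 and a set limit; inactive means the rest.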

Molecular target: E3 ubiquitin-protein ligase SIAH1 (Homo sapiens) (UniProt Q8IUQ4)
Test: blockers of Siah-1 interaction with plectin peptide – biochemical, fluorescence polarization, rhodamine-plectin, uHTS, primary screen (AID 1817)
Details: Siah-1 / rhodamine-plectin peptide fluorescence polarization

E3 ubiquitin-protein ligase SIAH1 (Homo sapiens), sequence (Q8IUQ4 whole entry, looked up): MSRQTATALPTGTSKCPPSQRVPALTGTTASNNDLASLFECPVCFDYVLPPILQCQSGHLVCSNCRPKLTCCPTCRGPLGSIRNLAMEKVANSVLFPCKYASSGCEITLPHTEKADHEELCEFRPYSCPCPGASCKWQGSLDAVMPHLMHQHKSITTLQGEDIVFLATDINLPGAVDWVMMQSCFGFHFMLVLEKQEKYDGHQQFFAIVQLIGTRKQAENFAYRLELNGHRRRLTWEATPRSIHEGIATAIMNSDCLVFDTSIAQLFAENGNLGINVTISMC

Compound | IC50
CCN(CC)CCOC(=O)c1ccc(N/C=C(/C#N)c2nc(-c3ccc(OC)c(OC)c3)cs2)cc1 | 12.5 µM
O=C(O)c1cc(O)c2c(c1)C(=O)c1cccc(O)c1C2=O | inactive
O=S(=O)(Nc1cc2nc3ccccc3nc2n1Cc1ccccc1)c1ccc(Cl)cc1 | > 200 µM (inactive)
O=C(Nc1ccc(Oc2ccsc2C(=O)O)cc1)c1ccccc1F | > 200 µM (inactive)
CCCCn1c(NS(=O)(=O)c2ccccc2)c(C(=O)OCC)c2nc3ccccc3nc21 | > 200 µM (inactive)
O=C(Nc1nc(-c2cc3ccccc3oc2=O)cs1)c1ccco1 | > 200 µM (inactive)
COc1cccc2cc(C(=O)N3CCc4ccccc43)c(=O)oc12 | > 200 µM (inactive)
Oc1ccc(N=Cc2ccc(OCc3ccccc3)cc2)cc1 | inactive
Nc1ccc(O)c2c1C(=O)c1ccccc1C2=O | 1.52 µM
CC(=O)c1ccc(NC(=O)CC2Nc3cccc4cccc(c34)NC2=O)cc1 (stereo unspecified) | > 200 µM (inactive)
Nc1c(C(=O)NCc2ccco2)c2nc3ccccc3nc2n1Cc1ccccc1 | > 200 µM (inactive)
COC(=O)C1CC(=O)N(c2ccc(OCc3ccccc3Cl)cc2)C1 (stereo unspecified) | > 200 µM (inactive)
COc1ccc(CCNC(=O)c2ccc(S(=O)(=O)N(C)c3ccccc3)cc2)cc1OC | > 200 µM (inactive)
O=C(CC1Nc2cccc3cccc(c23)NC1=O)Nc1ccccc1 (stereo unspecified) | > 200 µM (inactive)
Cc1cc(C)n(-c2ccc(Cl)c(C(=O)Nc3cc(C(F)(F)F)ccc3Cl)n2)n1 | > 200 µM (inactive)
COc1cc(CNc2ccc(O)cc2)cc(Br)c1OCc1ccccc1F | inactive
CCN(CC)CCOC(=O)c1ccc(N/C=C(/C#N)c2nc(-c3cc4ccccc4oc3=O)cs2)cc1 | 11.2 µM
O=C(CCn1ccc2ccccc21)NC1CCCc2ccccc21 (stereo unspecified) | > 200 µM (inactive)

Compound | IC50
CN1C(=O)NC(c2ccccc2[N+](=O)[O-])C2=C1CCCC2=O (stereo unspecified) | 10.3 µM
O=C1CCCC(O)=C1N=Nc1ccc(C(=O)O)cc1 | > 200 µM (inactive)
O=C(CCN1CCN(Cc2ccccc2)CC1)Nc1cccc(Cl)c1 | > 200 µM (inactive)
O=c1[nH]c(-c2ccc(F)cc2)nc2c1sc(=S)n2-c1ccccc1 | 19.6 µM
CCCCn1c(NS(=O)(=O)c2ccccc2)c(S(=O)(=O)c2ccc(C)cc2)c2nc3ccccc3nc21 | > 200 µM (inactive)
O=C(Nc1ccc(Cl)cc1)c1ccc(S(=O)(=O)N2CCOCC2)cc1 | > 200 µM (inactive)
Cc1cc(Cl)ccc1NC(=O)CN1CCC(C(O)(c2ccccc2)c2ccccc2)CC1 | > 200 µM (inactive)
CC1CCN(C(=O)C2CCC(C)(C(=O)O)C2(C)C)CC1 (stereo unspecified) | > 200 µM (inactive)
CSc1ccccc1C(=O)NC(C)c1ccc(-n2ccnc2)cc1 (stereo unspecified) | > 200 µM (inactive)
O=C(Nc1ccc(Cl)cc1)OCc1cn(-c2ccccc2)nn1 | > 200 µM (inactive)
CC(C)(C)c1cc(-c2csc(Nc3ccccc3)[n+]2Cc2ccc(C(=O)O)cc2)cc(C(C)(C)C)c1O | > 200 µM (inactive)
O=C(Nc1ccc(Br)cc1)c1ccc(N2C(=O)C3CC=CCC3C2=O)cc1 (stereo unspecified) | 18.6 µM
C=CCc1cccc2cc(C(=O)Nc3ccc(CC(=O)O)cc3)c(=O)oc12 | 17.3 µM
C[C@]12CCC3C(CC=C4C[C@@H](O)CC[C@@]43C)C1CCC2[C@]1(C)CCC(=O)O1 (stereo partly specified) | > 200 µM (inactive)
COc1ccc(CNC(=S)Nc2cc(OC)ccc2OC)cc1 | > 200 µM (inactive)
CC(=O)Nc1ccc(N=Cc2c(O)c(C(=O)Nc3ccccc3)cc3ccccc23)cc1 | 24.9 µM
O=S(=O)(Nc1nc2ccccc2nc1Nc1ccc(N2CCOCC2)cc1)c1cc(Cl)ccc1Cl | > 200 µM (inactive)
Cc1ccc(-n2cccn2)c([C@@H]2C[C@H]3CN(C)C(=O)[C@]34CCCN24)c1 | > 200 µM (inactive)
